Consider two compounds from the NIST ThermoML archive (doi:10.1016/j.tca.2008.03.014).

± gives the expanded uncertainty stated by the source.

For the data set the following is noted: Crystal; DTA.

Take `[F-].[Rb+]` [rubidium fluoride (RbF)]: the Normal melting temperature amounted to 790.1 ± 1 °C.
For `[I-].[Rb+]` [rubidium iodide (RbI)] the value was 650.00 ± 1 °C.
